From ChEMBL document CHEMBL2331258, “HR-MALDI-MS imaging assisted screening of β-carboline alkaloids discovered from Mycena metata” (2013)
The source made the active and inactive calls. No cut-off for these calls is given here.

Tests used:
Bacillus subtilis [1] = experiment: Antibacterial activity against Bacillus subtilis NCCB 1089 assessed as diameter of growth inhibition zone at 0.5 umol at 37 degC after 24 hrs by agar diffusion assay; type: functional
Brevibacillus brevis [2] = experiment: Antibacterial activity against Bacillus brevis NCCB 89173 assessed as diameter of growth inhibition zone at 0.5 umol at 37 degC after 24 hrs by agar diffusion assay; type: functional
Bacillus pumilus [3] = experiment: Antibacterial activity against Bacillus pumilus assessed as diameter of growth inhibition zone at 0.5 umol at 26 degC after 24 hrs by agar diffusion assay; type: functional
Bacillus subtilis [4] = experiment: Antibacterial activity against Bacillus subtilis NCCB 1089 assessed as growth inhibition at 0.5 umol at 37 degC after 24 hrs by agar diffusion assay; type: functional, organism-based
Cladosporium cucumerinum = experiment: Antibacterial activity against Cladosporium cucumerinum CBS 177.54 assessed as growth inhibition at 0.5 umol at 18 degC after 3 to 5 days by agar diffusion assay; type: functional, organism-based
Escherichia coli = experiment: Antibacterial activity against Escherichia coli assessed as growth inhibition at 0.5 umol at 37 degC after 24 hrs by agar diffusion assay; type: functional, organism-based
Bacillus pumilus [5] = experiment: Antibacterial activity against Bacillus pumilus assessed as growth inhibition at 0.5 umol at 26 degC after 24 hrs by agar diffusion assay; type: functional, organism-based
Saccharomyces cerevisiae = experiment: Antibacterial activity against Saccharomyces cerevisiae assessed as growth inhibition at 0.5 umol at 26 degC after 24 hrs by agar diffusion assay; type: functional, organism-based
Brevibacillus brevis [6] = experiment: Antibacterial activity against Bacillus brevis NCCB 89173 assessed as growth inhibition at 0.5 umol at 37 degC after 24 hrs by agar diffusion assay; type: functional, organism-based

SMILES: NCCC[C@H](N)CC(=O)N[C@@H]1[C@@H](O)[C@H](OC(N)=O)[C@@H](CO)O[C@H]1/N=C1\N[C@@H]2[C@H](O)CNC(=O)[C@H]2N1 [NOURSEOTHRICIN]
- diameter of the inhibition zone (DIZ) (Bacillus subtilis [1]): 14 mm
- diameter of the inhibition zone (DIZ) (Brevibacillus brevis [2]): 25 mm
- diameter of the inhibition zone (DIZ) (Bacillus pumilus [3]): 25 mm

SMILES: C[C@@H](O)[C@H](NC(=O)c1cc2c([nH]c3ccc(O)cc32)c(CCC(=O)N2CCC[C@H]2C(=O)O)n1)C(=O)O
- growth inhibition (GI) (Bacillus subtilis [4]): inactive
- growth inhibition (GI) (Cladosporium cucumerinum): inactive
- growth inhibition (GI) (Escherichia coli): inactive
- growth inhibition (GI) (Bacillus pumilus [5]): inactive
- growth inhibition (GI) (Saccharomyces cerevisiae): inactive
- growth inhibition (GI) (Brevibacillus brevis [6]): inactive
